Our source for the Kd values is article PMC5646234 (ChemPhotoChem, 2017).

In the experiment the target is T1, Saposin B (SapB) (Homo sapiens, UniProt P07602).
T1 sequence (P07602 195-273): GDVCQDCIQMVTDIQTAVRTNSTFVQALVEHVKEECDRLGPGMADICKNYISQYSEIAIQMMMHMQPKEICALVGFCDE
The experiment can be described thus: tyrosine fluorescence quenching titration. Format: binding.

For orientation: Kd means a measure of binding affinity in units of concentration.

With `CC1=C(/C=C/C(C)=C/C=C/C(C)=C/c2cc(/C=C/C=C(C)/C=C/C3=C(C)CCCC3(C)C)cc[n+]2CCO)C(C)(C)CCC1` [A2E, 2-[(1E,3E,5E,7E)-2,5-dimethyl-8-(2,6,6-trimethyl-cyclohex-1-en-1-yl)octa-1,3,5,7-tetraen-1-yl]-1-(2-hydroxyethyl)-4-[(1E,3E,5E)-4-methyl-6-(2,6,6-trimethylcyclohex-1-en-1-yl)hexa-1,3,5-trien-1-yl]pyridinium], the Kd came out at 25 µM.
